In US20250326769A1, “HETEROAROMATIC MACROCYCLIC ETHER CHEMOTHERAPEUTIC AGENTS” (Nuvalent, Inc., priority 2022, published 2025):

How the values were obtained:
[1] = molecular target: Ba/F3 ETV6-TRKB (Homo sapiens, UniProt Q16620); assay: Ba/F3 cell proliferation assay, ETV6-TRKB; assay type: cell-based; details: Ba/F3 stable cells, 72 hours, CellTiter-Glo; read-out: ETV6-TRKB IC50
How it was run: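 Ba/F3 cells retrovirally transduced with ETV6-TRKB and selected for IL-3-independent growth with puromycin were treated with 3-fold compound dilutions for 72 h. Viability read by CellTiter-Glo luminescence; IC50 from percent inhibition by four-parameter logistic fit.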

[2] = molecular target: Ba/F3 EML4-ALK v1 I1171N/D1203N (Homo sapiens (Human), UniProt Q9HC35+Q9UM73, D1203N/I1171N); assay: Ba/F3 cell proliferation assay, EML4-ALK v1 I1171N/D1203N; assay type: cell-based; details: for IC50: Ba/F3 stable cells, 72 hours, CellTiter-Glo; for ETV6-TRKB / EML4-ALK v1 I1171N/D1203N: TRKB selectivity, ratio of Ba/F3 IC50 values
How it was run: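 Ba/F3 cells made IL-3-independent by retroviral EML4-ALK v1 I1171N/D1203N and selected with puromycin, then treated with 3-fold compound dilutions for 72 h. Viability by CellTiter-Glo luminescence; IC50 from four-parameter logistic fit.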

[3] = molecular target: ALK I1171N/D1203N (Homo sapiens (Human), UniProt Q9UM73, D1203N/I1171N); assay: Biochemical kinase assay, ALK I1171N/D1203N; details: apparent inhibitory constant, kinase domain, Morrison equation; read-out: ALK-I1171N-D1203N Ki^app
Procedure: (§1) First, 250 nL of compound dissolved in DMSO (100-fold of the desired concentration) was dispensed into a 384-well plate. A 12.5 μL substrate solution containing ATP (2 mM) and fluorogenic phosphorylation substrate AQT0101 ([…] for ALK and ROS, AssayQuant) or AQT0104 (26 μM for TRKB, AssayQuant) in buffer (50 mM HEPES pH 7.5, […], 0.5 mM EGTA, 10 mM MgCl2) was added and mixed thoroughly. Then, a 12.5 μL kinase solution containing ALK (1.5 nM, Carna, 08-518), ALK I1171N/D1203N (4 nM, SignalChem, custom-made), ROS1 (0.6 nM, Carma, 08-163), ROS1-G2032R (0.5 nM, SignalChem, R14-121BG), or TRKB-wt (1.5 nM, SignalChem, N17-11G) kinase domains in buffer ([…] pH 7.5, 0.01% Brij-[…], 0.4 mg/mL BSA, 0.5 mM EGTA, and 10 mM MgCl2) was added and mixed thoroughly. The plate was sealed and read by SpectraMax Paradigm at λ=485 nm every 2 minutes for 120 minutes at 30° C. Initial rates of reaction (v) were calculated from the change in fluorescence intensity over time during the initial, linear portion of the reaction. Finally, apparent inhibitory constants (Ki^app) were determined from regression of v and I (inhibitor concentration) to Morrison Equation (E=enzyme concentration): […]
(§2) Compound potency can be interpreted by binning Ki^app values against the targets: bin A for high potency, Ki^app<50 nM; bin B for medium potency, 50 nM≤Ki^app<500 nM; and bin C for low potency, Ki^app≥500 nM. […] “nd” means not determined.

[4] = molecular target: TRKB-wt (Homo sapiens (Human), UniProt Q16620); assay: Biochemical kinase assay, TRKB-wt; details: apparent inhibitory constant, kinase domain, Morrison equation; read-out: TRKB-wt Ki^app
Procedure: as §1, §2

Chain of Ba/F3 EML4-ALK v1 I1171N/D1203N (Q9UM73 other isoform, or with tags, fused parts or gaps I1171N/D1203N): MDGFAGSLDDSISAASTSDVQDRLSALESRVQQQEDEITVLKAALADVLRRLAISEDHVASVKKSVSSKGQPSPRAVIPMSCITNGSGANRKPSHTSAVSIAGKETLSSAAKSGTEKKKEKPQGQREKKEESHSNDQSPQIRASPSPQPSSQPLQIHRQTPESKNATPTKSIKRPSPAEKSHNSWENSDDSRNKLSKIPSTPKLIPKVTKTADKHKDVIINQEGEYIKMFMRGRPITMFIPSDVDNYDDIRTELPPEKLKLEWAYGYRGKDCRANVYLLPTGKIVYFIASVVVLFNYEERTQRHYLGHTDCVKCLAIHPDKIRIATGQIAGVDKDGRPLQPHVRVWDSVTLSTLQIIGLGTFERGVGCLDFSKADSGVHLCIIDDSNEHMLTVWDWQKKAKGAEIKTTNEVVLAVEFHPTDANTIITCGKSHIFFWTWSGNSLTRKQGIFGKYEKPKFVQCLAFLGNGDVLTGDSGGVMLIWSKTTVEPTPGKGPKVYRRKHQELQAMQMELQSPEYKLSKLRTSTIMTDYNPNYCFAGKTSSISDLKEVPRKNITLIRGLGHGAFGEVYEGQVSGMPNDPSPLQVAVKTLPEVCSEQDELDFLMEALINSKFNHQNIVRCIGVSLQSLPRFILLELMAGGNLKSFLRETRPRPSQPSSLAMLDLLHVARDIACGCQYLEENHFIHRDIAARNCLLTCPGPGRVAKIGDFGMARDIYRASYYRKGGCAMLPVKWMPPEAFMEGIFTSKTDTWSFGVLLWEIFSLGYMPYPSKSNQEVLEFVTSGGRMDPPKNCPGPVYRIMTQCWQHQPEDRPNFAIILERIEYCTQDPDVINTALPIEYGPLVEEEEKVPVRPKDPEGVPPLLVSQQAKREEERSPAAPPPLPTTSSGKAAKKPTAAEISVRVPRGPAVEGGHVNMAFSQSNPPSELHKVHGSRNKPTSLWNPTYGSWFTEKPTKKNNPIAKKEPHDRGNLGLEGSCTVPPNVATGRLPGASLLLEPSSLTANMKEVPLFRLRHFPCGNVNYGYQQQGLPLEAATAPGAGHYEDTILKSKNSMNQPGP
Chain of ALK I1171N/D1203N (Q9UM73 1116-1392 I1171N/D1203N): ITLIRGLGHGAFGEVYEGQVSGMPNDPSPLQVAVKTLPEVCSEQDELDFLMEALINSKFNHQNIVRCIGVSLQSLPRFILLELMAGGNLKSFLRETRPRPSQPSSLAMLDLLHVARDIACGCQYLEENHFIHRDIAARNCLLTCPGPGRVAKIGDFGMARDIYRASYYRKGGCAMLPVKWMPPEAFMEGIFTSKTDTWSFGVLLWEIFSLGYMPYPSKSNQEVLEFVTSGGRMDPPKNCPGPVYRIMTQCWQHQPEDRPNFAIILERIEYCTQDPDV
Chain of Ba/F3 ETV6-TRKB (Q16620 32-822 limits assumed, change not shown): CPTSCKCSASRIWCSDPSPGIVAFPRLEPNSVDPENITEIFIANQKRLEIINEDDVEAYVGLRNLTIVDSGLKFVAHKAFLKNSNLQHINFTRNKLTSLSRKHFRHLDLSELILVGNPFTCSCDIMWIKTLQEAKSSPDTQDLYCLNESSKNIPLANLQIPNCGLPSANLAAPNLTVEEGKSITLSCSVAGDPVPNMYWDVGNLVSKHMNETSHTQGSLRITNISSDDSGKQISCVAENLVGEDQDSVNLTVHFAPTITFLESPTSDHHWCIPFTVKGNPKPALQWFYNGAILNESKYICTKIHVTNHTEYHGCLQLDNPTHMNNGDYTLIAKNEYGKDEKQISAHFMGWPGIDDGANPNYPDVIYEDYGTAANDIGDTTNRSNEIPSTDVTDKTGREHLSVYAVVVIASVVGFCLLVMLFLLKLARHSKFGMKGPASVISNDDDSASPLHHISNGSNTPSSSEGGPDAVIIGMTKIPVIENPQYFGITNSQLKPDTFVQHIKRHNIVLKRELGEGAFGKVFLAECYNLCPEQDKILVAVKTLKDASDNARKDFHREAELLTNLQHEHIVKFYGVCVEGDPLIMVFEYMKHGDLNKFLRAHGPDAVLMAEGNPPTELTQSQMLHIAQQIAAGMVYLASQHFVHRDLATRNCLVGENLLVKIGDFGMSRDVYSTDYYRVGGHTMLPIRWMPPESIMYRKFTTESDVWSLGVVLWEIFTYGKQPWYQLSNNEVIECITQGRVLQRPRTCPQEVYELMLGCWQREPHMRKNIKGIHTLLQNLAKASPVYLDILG
Chain of TRKB-wt (Q16620 538-807): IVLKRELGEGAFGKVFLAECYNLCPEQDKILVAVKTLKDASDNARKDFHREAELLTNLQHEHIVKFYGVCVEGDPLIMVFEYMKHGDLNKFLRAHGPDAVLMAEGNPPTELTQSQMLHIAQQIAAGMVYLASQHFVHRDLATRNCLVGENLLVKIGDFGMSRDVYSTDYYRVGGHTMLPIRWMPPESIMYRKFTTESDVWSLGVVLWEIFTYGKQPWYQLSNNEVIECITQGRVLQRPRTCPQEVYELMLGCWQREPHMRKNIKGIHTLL

Row | IC50 [1] [nM] | IC50 [2] [nM] | Ki [3] [nM] | Ki [4] [nM] | SMILES | ETV6-TRKB / EML4-ALK v1 I1171N/D1203N [2]
1 | > 500 | 0.1 to 50 | < 50 | ≥ 500 | C[C@H]1Oc2cc(cnc2N)-c2c(CC3CC3)nc(C(=O)N(C)C)n2Cc2cn(C)nc2-c2ccc(F)cc21 [Example 41, N,N-dimethyl-(R)-22-amino-3-(cyclopropylmethyl)-16-fluoro-10-methyl-19-methyl-20-oxa-4,6,10,11,23-pentaazapentacyclo[19.3.1.0^2,6.0^8,12.0^13,18]pentacosa-1(24),2,4,8,11,13,15,17,21(25),22-decaene-5-carboxamide] | A (bin A for very high selectivity, ratio≥30-fold)
2 | > 500 | 50 to 500 | < 50 | ≥ 500 | C[C@H]1Oc2cc(cnc2N)-c2c(c(C(=O)N3CCC(F)(F)C3)nn2CC2CC2)Cc2cn(C)nc2-c2ccc(F)cc21 [Example 12, {(R)-22-amino-3-(cyclopropylmethyl)-16-fluoro-10-methyl-19-methyl-20-oxa-3,4,10,11,23-pentaazapentacyclo[19.3.1.0^2,^6.0^8,^12.013,18]pentacosa-1(24),2(6),4,8,11,13,15,17,21(25),22-decaen-5-yl}(3,3-difluoro-1-pyrrolidinyl)methanone] | C (bin C for moderate selectivity, ratio≥1 but<10)
3 | > 500 | 50 to 500 | < 50 | 50 to 500 | C[C@H]1Oc2cc(cnc2N)-c2c(c(C(=O)N3CCCC3)nn2CC2CC2)Cc2cn(C)nc2-c2ccc(F)cc21 [Example 11, {(R)-22-amino-3-(cyclopropylmethyl)-16-fluoro-10-methyl-19-methyl-20-oxa-3,4,10,11,23-pentaazapentacyclo[19.3.1.0^2,^6.0^8,^12.0^13,^18]pentacosa-1(24),2(6),4,8,11,13,15,17,21(25),22-decaen-5-yl}(1-pyrrolidinyl)methanone] | B (bin B for high selectivity, ratio≥10-fold but<30)
4 | > 500 | 50 to 500 | < 50 | 50 to 500 | C[C@H]1Oc2cc(cnc2N)-c2c(c([S+](C)[O-])nn2CC2CC2)Cc2cn(C)nc2-c2ccc(F)cc21 (stereo partly drawn) [Example 17, (R)-3-(cyclopropylmethyl)-16-fluoro-10-methyl-19-methyl-5-(methylsulfinyl)-20-oxa-3,4,10,11,23-pentaazapentacyclo[19.3.1.0^2,^6.0^8,^12.0^13,^18]pentacosa-1(24),2(6),4,8,11,13,15,17,21(25),22-decaen-22-ylamine] | C (bin C for moderate selectivity, ratio≥1 but<10)
5 | 50 to 500 | 0.1 to 50 | < 50 | < 50 | Cc1cc2n(n1)-c1ccc(F)cc1[C@@H](C)Oc1cc(cnc1N)-c1c(nn(C)c1C#N)C2=O [Example 19, (R)-22-amino-16-fluoro-4-methyl-10,19-dimethyl-7-oxo-20-oxa-4,5,11,12,23-pentaazapentacyclo[19.3.1.0^2,^6.0^8,^12.0^13,^18]pentacosa-1(24),2,5,8, 10,13,15,17,21(25),22-decaene-3-carbonitrile] | B (bin B for high selectivity, ratio≥10-fold but<30)
6 | > 500 | 0.1 to 50 | < 50 | ≥ 500 | CC1CCCN1C(=O)c1nn(CC2CC2)c2c1Cc1cn(C)nc1-c1ccc(F)cc1[C@@H](C)Oc1cc-2cnc1N (stereo partly drawn) [Example 31, {(R)-22-amino-3-(cyclopropylmethyl)-16-fluoro-10-methyl-19-methyl-20-oxa-3,4,10,11,23-pentaazapentacyclo[19.3.1.0^2,^6.0^8,^12.0^13,^18]pentacosa-1(24),2(6),4,8,11, 13,15,17,21(25),22-decaen-5-yl}(2-methyl-1-pyrrolidinyl)methanone] | A (bin A for very high selectivity, ratio≥30-fold)
